Experimental data published in patent US9775844B2, “Heterocyclic compounds and uses thereof” (Infinity Pharmaceuticals, Inc., priority 2014, dated 2017).
Like-named read-outs stand apart in the source and are kept apart here.

How the values were obtained:
PI3K γ = PI3K γ (Homo sapiens (Human), UniProt P48736); experiment: PI3-Kinase Promega ADP-Glo Max assay; type: biochemical
PI3K δ = PI3K δ (Homo sapiens (Human), UniProt O00329); experiment: PI3-Kinase Promega ADP-Glo Max assay; type: biochemical
Chain of PI3K δ (O00329 whole entry): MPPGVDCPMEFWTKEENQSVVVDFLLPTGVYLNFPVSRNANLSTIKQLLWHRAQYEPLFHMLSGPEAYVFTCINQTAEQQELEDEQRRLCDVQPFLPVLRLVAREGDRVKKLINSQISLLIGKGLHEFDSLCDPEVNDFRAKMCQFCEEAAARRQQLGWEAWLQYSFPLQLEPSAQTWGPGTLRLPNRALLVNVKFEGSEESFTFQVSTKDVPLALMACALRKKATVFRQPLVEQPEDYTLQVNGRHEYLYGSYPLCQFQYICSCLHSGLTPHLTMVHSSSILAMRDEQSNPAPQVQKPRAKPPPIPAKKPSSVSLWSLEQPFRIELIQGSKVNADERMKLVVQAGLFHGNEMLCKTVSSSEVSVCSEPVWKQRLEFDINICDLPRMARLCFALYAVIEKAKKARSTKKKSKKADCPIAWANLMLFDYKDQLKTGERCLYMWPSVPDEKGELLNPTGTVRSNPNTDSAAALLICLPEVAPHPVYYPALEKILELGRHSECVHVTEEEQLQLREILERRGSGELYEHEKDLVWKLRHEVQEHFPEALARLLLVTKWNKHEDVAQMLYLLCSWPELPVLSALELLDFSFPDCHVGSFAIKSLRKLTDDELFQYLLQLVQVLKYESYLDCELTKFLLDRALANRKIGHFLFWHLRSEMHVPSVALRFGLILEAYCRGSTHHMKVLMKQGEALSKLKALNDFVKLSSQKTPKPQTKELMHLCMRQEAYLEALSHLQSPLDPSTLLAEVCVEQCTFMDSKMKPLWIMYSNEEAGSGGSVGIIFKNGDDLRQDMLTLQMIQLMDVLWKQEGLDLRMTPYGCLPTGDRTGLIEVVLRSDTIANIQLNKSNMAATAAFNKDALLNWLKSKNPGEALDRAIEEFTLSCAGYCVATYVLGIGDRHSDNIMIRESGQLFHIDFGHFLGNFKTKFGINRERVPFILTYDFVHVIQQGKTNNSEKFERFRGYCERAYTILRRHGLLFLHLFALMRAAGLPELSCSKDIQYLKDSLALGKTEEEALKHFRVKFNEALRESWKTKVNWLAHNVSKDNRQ
Chain of PI3K δ (P27986 whole entry partner): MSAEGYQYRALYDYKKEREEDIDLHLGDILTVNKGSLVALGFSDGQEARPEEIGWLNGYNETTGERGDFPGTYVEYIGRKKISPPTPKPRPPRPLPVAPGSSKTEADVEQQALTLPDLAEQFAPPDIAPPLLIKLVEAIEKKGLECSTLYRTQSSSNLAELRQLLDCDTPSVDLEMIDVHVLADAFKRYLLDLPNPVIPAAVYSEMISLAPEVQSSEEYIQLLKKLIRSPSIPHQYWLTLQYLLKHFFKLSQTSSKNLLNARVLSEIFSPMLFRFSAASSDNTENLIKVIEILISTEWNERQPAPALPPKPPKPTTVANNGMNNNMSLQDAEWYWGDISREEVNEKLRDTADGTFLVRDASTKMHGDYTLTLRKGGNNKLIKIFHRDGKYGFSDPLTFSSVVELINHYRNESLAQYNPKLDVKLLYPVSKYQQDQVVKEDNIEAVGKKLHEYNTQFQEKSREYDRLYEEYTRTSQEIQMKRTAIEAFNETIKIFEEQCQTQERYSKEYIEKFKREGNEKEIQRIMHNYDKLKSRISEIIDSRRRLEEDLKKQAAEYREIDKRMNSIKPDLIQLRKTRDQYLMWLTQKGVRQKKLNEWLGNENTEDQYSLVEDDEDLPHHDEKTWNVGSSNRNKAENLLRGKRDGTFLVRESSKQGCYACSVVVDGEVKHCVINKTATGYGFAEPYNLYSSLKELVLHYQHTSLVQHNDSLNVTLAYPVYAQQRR

[1] = target: PI3K-γ in RAW264.7 macrophages (Mus musculus (Mouse), UniProt Q9JHG7); experiment: Raw264.7 p110 γ assay (PI3K-γ selective cellular assay, C5a-stimulated phospho-AKT); type: cell-based; conditions: for IC50: phospho-AKT, read-out: Raw264.7 p110 γ assay IC50
From the text: Briefly, serum-starved RAW264.7 cells are stimulated with a known GPCR agonist C5a. […] Cells can be treated with test compounds prior to, simultaneously with, or subsequent to the stimulation by C5a. RAW 264.7 cells respond to the complement component fragment C5a through activation of the C5a receptor, and the C5a receptor activates macrophages and induces cell migration.

PI3K α = PI3K α (Homo sapiens (Human), UniProt P42336); experiment: PI3-Kinase Promega ADP-Glo Max assay; type: biochemical
PI3K-δ in RAJI cells = PI3K-δ in RAJI cells (Homo sapiens (Human), UniProt O00329); experiment: RAJI p110 δ assay (PI3K-δ selective cellular assay, phospho-AKT); type: cell-based; conditions: phospho-AKT; read-out: RAJI p110 δ assay IC50
Chain of PI3K-δ in RAJI cells (O00329 whole entry): as the sequence (O00329 whole entry) above
Chain of PI3K-δ in RAJI cells (P27986 whole entry partner): as the sequence (P27986 whole entry partner) above

PI3K β = PI3K β (Homo sapiens (Human), UniProt P42338); experiment: PI3-Kinase Promega ADP-Glo Max assay; type: biochemical
Chain of PI3K β (P42338 whole entry): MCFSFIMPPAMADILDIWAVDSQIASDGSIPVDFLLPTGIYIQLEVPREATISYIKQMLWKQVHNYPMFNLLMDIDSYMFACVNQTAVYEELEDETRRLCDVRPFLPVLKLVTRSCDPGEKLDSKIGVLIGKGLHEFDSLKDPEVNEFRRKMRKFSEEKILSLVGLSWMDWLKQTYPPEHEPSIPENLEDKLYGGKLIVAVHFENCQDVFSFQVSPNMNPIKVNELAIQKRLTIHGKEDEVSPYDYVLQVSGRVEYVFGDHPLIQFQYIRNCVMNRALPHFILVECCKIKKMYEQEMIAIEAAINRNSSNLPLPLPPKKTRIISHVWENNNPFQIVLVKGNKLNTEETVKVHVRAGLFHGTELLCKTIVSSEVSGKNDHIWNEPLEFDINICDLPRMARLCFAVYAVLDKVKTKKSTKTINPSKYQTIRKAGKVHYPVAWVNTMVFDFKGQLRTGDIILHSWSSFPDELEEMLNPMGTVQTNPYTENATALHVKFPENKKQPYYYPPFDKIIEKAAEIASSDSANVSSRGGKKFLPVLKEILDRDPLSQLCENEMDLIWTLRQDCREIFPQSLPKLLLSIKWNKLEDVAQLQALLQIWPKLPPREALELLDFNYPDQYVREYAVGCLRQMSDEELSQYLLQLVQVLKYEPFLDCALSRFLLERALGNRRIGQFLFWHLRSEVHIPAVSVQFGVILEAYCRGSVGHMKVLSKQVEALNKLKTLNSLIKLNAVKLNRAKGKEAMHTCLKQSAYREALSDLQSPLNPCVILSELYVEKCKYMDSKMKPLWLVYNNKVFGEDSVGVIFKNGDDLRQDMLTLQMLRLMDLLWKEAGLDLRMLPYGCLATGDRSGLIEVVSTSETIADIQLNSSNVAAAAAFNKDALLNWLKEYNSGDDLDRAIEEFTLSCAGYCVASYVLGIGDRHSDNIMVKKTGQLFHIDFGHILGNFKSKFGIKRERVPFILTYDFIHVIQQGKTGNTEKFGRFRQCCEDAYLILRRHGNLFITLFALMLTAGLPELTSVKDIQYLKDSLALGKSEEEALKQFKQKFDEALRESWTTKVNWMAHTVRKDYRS
Chain of PI3K β (P27986 whole entry partner): as the sequence (P27986 whole entry partner) above
Method: Promega ADP-Glo Max assay kit (Cat. No. V7002) was utilized to determine IC50 values for α, β, δ and γ isoforms of human Class I PI3 kinases (Millipore). […] Reactions were incubated at room temperature for 2 hours followed by addition of 25 uL of stop solution. After a 40-minute incubation at room temperature, 50 uL of Promega detection mix was added followed by incubation for 1 hour at room temperature. Plates were then read on Envision plate reader in lunimescence mode. Data was converted to % inhibition using the following equation below:
[formula] where S is the sample luminescence, Pos is a positive control without added PI3K, Neg is the negative control without added compound. Data was then plotted as % inhibition vs compound concentration.

[2] = Mouse pharmacokinetics, oral single and repeat dose; type: in vivo; conditions: for tlast / AUC(0-t) / Cmax / Tmax / AUC(0-inf) / half-life: female C57 mice; for AUC(0-t): female, C57, mouse, po; for AUC(0-t) / Cmax / Tmax / AUC(0-inf) / half-life: plasma; for Cmax / Tmax / AUC(0-inf) / half-life: mouse
Method: Animals were weighed daily prior to dosing. […] On subsequent dosing days, the animals' condition was noted prior to dosing; the animals were observed within 4 hours of dosing, and at the end of the day.
Samples were collected at pre-dose 0.25, 0.5, 1, 2, 4, 6 and 24 h following the first dose on day 1 and pre-dose (trough), 0.25, 0.5, 1, 2, 4, 6 and 24 h following the final dose on day 3 Animals received a single oral dose daily for 3 consecutive days. Blood was collected by retro-orbital bleeding for all time points on day 1. All other blood sampling was collected by a cardiac puncture. Blood was collected into K2EDTA tubes and placed on wet ice. Within 15 min of collection, the sample was centrifuged at 10,000 rpm at 4° C. for 10 min in a bench top centrifuge and the plasma transferred to a new microcentrifuge tube.
A similar study was carried out using Compound 88. […] Below is a table that details the results for Compound 88: […]

LLC tumor brei = LLC tumor brei model with or without cyclophosphamide (tumor growth, FACS); type: in vivo, mouse; conditions: Compound BB 15 mg/kg QD PO; cyclophosphamide 50 mg/kg EOD IP
Method: In this experiment, treatment began when tumors reached approx. 150 mm^3—around day 12. Caliper and xenogen images were monitored. Treatment groups n=13-15/group. […] Samples for FACs analysis were collected on day 23 post implant. Using FACS, cells were assayed for the level of CD11b and Gr-1.

Chain of PI3K γ (P48736 whole entry): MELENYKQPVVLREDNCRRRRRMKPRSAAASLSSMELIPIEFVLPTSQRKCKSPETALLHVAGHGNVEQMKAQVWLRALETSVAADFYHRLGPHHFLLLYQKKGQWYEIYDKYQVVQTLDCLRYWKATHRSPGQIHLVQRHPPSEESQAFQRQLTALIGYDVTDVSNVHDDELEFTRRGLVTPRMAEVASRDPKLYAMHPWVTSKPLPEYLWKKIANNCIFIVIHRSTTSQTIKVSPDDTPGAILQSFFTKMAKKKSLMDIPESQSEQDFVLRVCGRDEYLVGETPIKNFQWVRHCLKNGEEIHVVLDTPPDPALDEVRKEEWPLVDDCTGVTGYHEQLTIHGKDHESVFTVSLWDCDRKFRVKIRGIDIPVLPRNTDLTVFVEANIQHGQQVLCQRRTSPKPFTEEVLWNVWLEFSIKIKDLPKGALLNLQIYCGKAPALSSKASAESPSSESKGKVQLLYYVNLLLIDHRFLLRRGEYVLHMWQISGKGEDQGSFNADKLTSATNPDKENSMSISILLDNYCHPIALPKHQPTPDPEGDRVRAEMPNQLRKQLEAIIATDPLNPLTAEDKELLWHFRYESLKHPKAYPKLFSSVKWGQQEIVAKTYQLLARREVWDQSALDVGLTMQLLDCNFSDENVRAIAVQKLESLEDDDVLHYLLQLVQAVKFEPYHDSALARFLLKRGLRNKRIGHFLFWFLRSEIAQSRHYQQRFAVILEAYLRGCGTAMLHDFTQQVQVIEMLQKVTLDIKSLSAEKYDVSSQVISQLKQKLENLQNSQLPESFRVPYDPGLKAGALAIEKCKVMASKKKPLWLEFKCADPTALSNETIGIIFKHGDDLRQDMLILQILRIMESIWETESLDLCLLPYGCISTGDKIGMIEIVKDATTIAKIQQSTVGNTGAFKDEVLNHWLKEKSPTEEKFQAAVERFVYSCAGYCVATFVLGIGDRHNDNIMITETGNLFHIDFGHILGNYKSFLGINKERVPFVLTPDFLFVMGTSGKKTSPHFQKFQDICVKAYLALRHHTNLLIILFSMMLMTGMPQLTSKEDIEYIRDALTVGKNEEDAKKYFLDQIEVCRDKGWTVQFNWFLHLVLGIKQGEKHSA

SMILES | IC50 (PI3K γ) [µM] | PI3K δ/PI3K γ IC50 (selectivity) (PI3K γ) | IC50 (PI3K δ) [µM] | RAJIδ/Raw264.7 γ IC50 (selectivity) [1] | IC50 [1] [µM] | IC50 (PI3K α) [µM] | IC50 (PI3K-δ in RAJI cells) [µM] | IC50 (PI3K β) [µM] | further results
C[C@H](NC(=O)c1c(N)nn2cccnc12)c1cc2cccc(C#CC3CCN(S(C)(=O)=O)CC3)c2c(=O)n1-c1ccccc1 [Compound 83] | 0.5 to 1 | X (key: V = 0.1 to 1; W = >1 to <10; X = 10 to <50; Y = 50 to <850) | 5 to 10 | X (key: V = 0.1 to 1; W = >1 to <10; X = 10 to <50; Y = 50 to <850) | 0.001 to 0.05 | 5 to 10 | 0.5 to 1 | 5 to 10 | –
C[C@H](NC(=O)c1c(N)nn2cccnc12)c1cc2cccc(C#CC3CCOC3)c2c(=O)n1-c1ccccc1 (stereo partly drawn) [Compound 84] | 0.001 to 0.1 | Y (Y = 50 to <850) | 5 to 10 | X (X = 10 to <50) | 0.001 to 0.05 | 5 to 10 | 0.1 to 0.5 | 5 to 10 | –
Cc1c(C#Cc2cccc3nc([C@H](C)NC(=O)c4c(N)nn5cccnc45)n(-c4ccccc4)c(=O)c23)cnn1C [Compound 88, (S)-2-amino-N-(1-(5-((1,5-dimethyl-1H-pyrazol-4-yl)ethynyl)-4-oxo-3-phenyl-3,4-dihydroquinazolin-2-yl)ethyl)pyrazolo[1,5-a]pyrimidine-3-carboxamide] | 0.1 to 0.5 | X (key: V = 0.1 to 1; W = >1 to <10; X = 10 to <50; Y = 50 to <850) | 5 to 10 | Y (key: V = 0.1 to 1; W = >1 to <10; X = 10 to <50; Y = 50 to <850) | 0.001 to 0.05 | 5 to 10 | 0.1 to 0.5 | 5 to 10 | tlast ([2]; 2 mg/kg PO NMP): 8 h; tlast ([2]; 7.5 mg/kg PO NMP): 24 h; tlast ([2]; 15 mg/kg PO NMP): 24 h; stability in serum (unbound plasma concentration time course) ([2]; female mice, 2, 7.5, 15 mg/kg PO): good stability in serum; AUC(0-t) ([2]; 2 mg/kg, 2 mg/kg PO NMP, read-out: AUC0-8): 3890 ng·h/mL; AUC(0-t) ([2]; 2 mg/kg, 2 mg/kg PO NMP, read-out: AUClast): 3890 ng·h/mL; AUC(0-t) ([2]; 7.5 mg/kg, 7.5 mg/kg PO NMP, read-out: AUC0-8): 15800 ng·h/mL; AUC(0-t) ([2]; 7.5 mg/kg, 7.5 mg/kg PO NMP, read-out: AUClast): 20600 ng·h/mL; AUC(0-t) ([2]; 15 mg/kg, 15 mg/kg PO NMP, read-out: AUC0-8): 34600 ng·h/mL; AUC(0-t) ([2]; 15 mg/kg, 15 mg/kg PO NMP, read-out: AUClast): 71700 ng·h/mL; Cmax ([2]; 2 mg/kg PO NMP): 654 ng/mL; Tmax ([2]; 2 mg/kg PO NMP): 2 h; AUC(0-inf) ([2]; 7.5 mg/kg PO NMP): 20700 ng·h/mL; Cmax ([2]; 7.5 mg/kg PO NMP): 3700 ng/mL; Tmax ([2]; 7.5 mg/kg PO NMP): 1 h; half-life ([2]; 7.5 mg/kg PO NMP): 2.8 h; AUC(0-inf) ([2]; 15 mg/kg PO NMP): 81200 ng·h/mL; Cmax ([2]; 15 mg/kg PO NMP): 5700 ng/mL; Tmax ([2]; 15 mg/kg PO NMP): 1 h; half-life ([2]; 15 mg/kg PO NMP): 7.9 h
C[C@H](NC(=O)c1c(N)nn2cccnc12)c1cc2ccc3ccccc3c2c(=O)n1-c1ccccc1 [Compound 89] | 0.5 to 1 | X (X = 10 to <50) | 5 to 10 | Y (Y = 50 to <850) | 0.001 to 0.05 | 5 to 10 | 1 to 10 | 5 to 10 | –
C[C@H](NC(=O)c1c(N)nn2cccnc12)c1cc2cccc(NC(=O)c3cnn(C)c3)c2c(=O)n1-c1ccccc1 [Compound 90] | 1 to 5 | W (key: V = 0.1 to 1; W = >1 to <10; X = 10 to <50; Y = 50 to <850) | 5 to 10 | X (key: V = 0.1 to 1; W = >1 to <10; X = 10 to <50; Y = 50 to <850) | 0.1 to 10 | 5 to 10 | 1 to 10 | 5 to 10 | –
C[C@H](NC(=O)c1c(N)nn2cccnc12)c1cc2cccc(CC(=O)c3cnn(C)c3)c2c(=O)n1-c1ccccc1 [Compound 91] | 0.5 to 1 | W (W = >1 to <10) | 5 to 10 | W (W = >1 to <10) | 0.1 to 10 | 5 to 10 | 0.1 to 0.5 | 5 to 10 | –
O=P1(N(CCCl)CCCl)NCCCO1 (stereo not drawn) [cyclophosphamide, reference compound] | – | – | – | – | – | – | – | – | tumor growth, LLC tumor brei model (LLC tumor brei): reduced tumor growth
